From patent publication US20100016300A1, “Imidazoacridine Compounds for Treating FLT3-Mediated Disorders” (priority 2006, published 2010)
Substitutions are numbered along the chain they refer to. Where two headings read alike, the source gives them in different places. Each block holds one compound with its values, some of them ahead of it.

Experiments:
[1] = molecular target: NTRK1 (Homo sapiens, UniProt P04629); assay: Kinase selectivity analysis (FIG. 4A), NTRK1; assay type: biochemical; settings: in words
Excerpt: (§1) The IC50 value is, therefore, a measure of potency. Another important feature is specificity.

[2] = molecular target: T1, FGFR2 (Homo sapiens, UniProt P21802); assay: SelectScreen in vitro kinase screen, FGFR2; assay type: biochemical
T1 construct: the juxtamembrane, ATP and catalytic components projecting from the cell membrane into the cytosol have been expressed through recombinant genetic techniques; purchased Invitrogen, Inc. (SelectScreen platform)
Excerpt: as §1

[3] = molecular target: T2, FLT3 (Homo sapiens, UniProt P36888); assay: SelectScreen in vitro dose response assay against FLT3 (Example 7); assay type: biochemical; settings: ATP at 100 micromolar; 4 parameter Hill equation
T2 construct: the juxtamembrane, ATP and catalytic components projecting from the cell membrane into the cytosol have been expressed through recombinant genetic techniques; purchased Invitrogen, Inc. (SelectScreen platform)
T2 sequence (P36888 564-993 limits assumed): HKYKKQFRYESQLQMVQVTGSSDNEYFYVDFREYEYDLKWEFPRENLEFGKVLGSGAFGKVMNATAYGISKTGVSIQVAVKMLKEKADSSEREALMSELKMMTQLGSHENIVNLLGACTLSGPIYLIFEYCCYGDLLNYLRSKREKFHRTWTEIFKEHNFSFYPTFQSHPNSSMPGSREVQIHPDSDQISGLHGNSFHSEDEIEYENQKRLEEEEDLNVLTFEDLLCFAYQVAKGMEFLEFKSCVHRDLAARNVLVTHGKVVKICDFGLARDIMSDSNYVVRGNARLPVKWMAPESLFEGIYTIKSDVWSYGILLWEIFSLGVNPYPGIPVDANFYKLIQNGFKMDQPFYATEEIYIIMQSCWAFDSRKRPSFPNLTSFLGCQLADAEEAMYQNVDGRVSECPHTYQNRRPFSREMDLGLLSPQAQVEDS
Description: The terms “IC50” and “EC50” are used interchangeably. As used herein, “EC50” refers to nMolar concentration at median percent inhibition determined by dose respose (DR) assay. As used herein, the term “E1000” refers to percent inhibition at 1000 nMolar determined by assay. EC50 was calculated based on dose response curve was fitted to 4 parameter Hill equation.
The compounds were then re-tested by adding graded amounts of putative inhibitor which were added in 5 separate increments to generate a dose response curve. The latter is obtained by fitting to a 4 parameter Hill equation, a sigmoid saturation equation.
The 2× FLT3/Tyr 02 peptide mixture was prepared in 50 mM HEPES pH 7.5, 0.01 BRIJ-35, 10 mM MgCl2, 1 mM EGTA. The final 10 uL kinase reaction consists of 0.6-76.0 ng FLT3 and 2 uM Tyr 02 peptide in 50 mM HEPES pH 7.5, 0.01% BRIJ-35, 10 mM Mg Cl2, 1 mM EGTA. After 1 hour kinase reaction incubation, 5 uL of a 1:64 dilution of development reagent A was added.

[4] = test system: KDR, PDGF and TRK members of the RTK family; assay: SelectScreen in vitro kinase screen, closely related RTKs; assay type: biochemical; settings: in words, relative to FLT3
Excerpt: as §1

[5] = molecular target: T2, FLT3; assay: SelectScreen in vitro kinase screen, FLT3 (Example 2); assay type: biochemical; settings: for activity against FLT3: in words
Excerpt: as §1

[6] = molecular target: T3, FLT3 D835Y (Homo sapiens, UniProt P36888, D835Y); assay: SelectScreen in vitro kinase screen, FLT3 mutant; assay type: biochemical; settings: in words
T3 construct: the juxtamembrane, ATP and catalytic components projecting from the cell membrane into the cytosol have been expressed through recombinant genetic techniques; purchased Invitrogen, Inc. (SelectScreen platform)
T3 sequence (P36888 564-993 D835Y limits assumed): T2 sequence (P36888 564-993 limits assumed) with D272Y
Excerpt: as §1

[7] = molecular target: PDGFRb (Homo sapiens, UniProt P09619); assay: Kinase selectivity analysis (FIG. 4A), PDGFRb; assay type: biochemical; settings: in words
Description: (§2) Testing of the compounds described in this invention was carried out using the SelectScreen™ platform from Invitrogen, Inc. (Carlsbad, Calif., USA) and the details of its performance are readily viewed via the web by linking to: http://www.invitrogen.com/downloads/SelectScm_Brochure.pdf.
(§3) Briefly the approach is based on treating each specific kinase with a unique substrate and optical reporter system in the presence of ATP at 100 micromolar or at the apparent optimal ATP concentration for each kinase. In controls, the substrate is phosphorylated and a baseline optimal response is recorded. Graded amounts of putative inhibitor are then added in separate increments to generate a dose response curve. The latter is obtained by fitting to a sigmoid saturation equation, such as the Hill equation, and the concentration of test article producing 50 per cent inhibition is then noted as the IC50. […] The IC50 value is, therefore, a measure of potency. Another important feature is specificity. It is considered a desirable property when claiming efficacy to determine how many kinases are inhibited by the same molecule. The fewer number inhibited points toward specificity; the greater to inhibitory promiscuity.
(§4) First the compounds of this invention were tested against a subset, the primary kinase screen, to determine initial activity at 1 and 0.1 micromolar concentrations.

[8] = test system: PKC; assay: Kinase selectivity analysis (FIG. 4A), PKC; assay type: biochemical; settings: in words
Description: as §2, §3, §4

[9] = test system: HL-60 leukemia; assay: Growth arrest in HL-60 leukemia; settings: Homo sapiens, HL-60, read-out: EC50 growth arrest
Description: When standard protocols for adherent cell culture are followed, according to the instructions supplied by the American Type Culture Collection for the two line, the cell will proliferate with an approximate 30 hour doubling time.

[10] = test system: MV4(11) cells; assay: Cell viability in MV4(11) cells; assay type: cell-based, human; settings: FLT3 ITD, compared with PKC412
Excerpt: (§5) It is now understood that an important subset of human myeloid leukemia cells overexpress FLT3 as constitutively activated mutations. The most prevalent of these is the internal tandem duplication. Two cell lines commonly used to test the potency of FLT3 inhibitors on cell growth and viability are the RS4(11) and MV4(11). The RS4(11) cell line, also known as RS4;11, was established from a bone marrow patient with acute lymphoblastic leukemia. This patient was […]. The cells lack surface and cytoplasmic immunoglobulin, and are negative for CD10. The cells have a characteristic chromosome translocation (4;11)(q21;q23), and an isochromosome for the long arm of chromosome 7. These cells express the wild-type FLT3 receptor and are further characterized by expression of the MHC Class II antigens (HLA DR+); CD9+; CD24+. The MV4(11) cell line, also known as MV-4-11, was established from the blast cells of a person with biphenotypic B myelomonocytic leukemia (ATCC). Other sources indicate this cell line is derived from acute monocytic leukemia (AML FAB M5). […] These cells express a mutant form of FLT3 containing an internal tandem duplication (ITD), and are further characterized by expression of CD4 (40-96%); CD10 (4-11%); CD15 (96-99%). […]

[11] = test system: RS4(11) cells; assay: Cell viability in RS4(11) cells; assay type: cell-based, human
Excerpt: as §5

[12] = molecular target: all the other RTK's; assay: SelectScreen in vitro kinase screen, other RTK and TK enzymes; assay type: biochemical; settings: read-out: IC50 against all the other RTK's
Excerpt: as §1

[13] = test system: Experimental Autoimmune Encephalomyelitis (EAE); assay: Experimental autoimmune encephalomyelitis (EAE) in mice; assay type: in vivo, C57BL/6 mice; settings: oral, from day 5: 10 mg/kg every 24 hrs, 20 mg/kg every 48 hrs, 30 mg/kg every 72 hrs; versus vehicle controls
Description: The EAE preparation used to test the efficacy of the imidazoacridinone analogs of the present invention followed a similar protocol as described by Small et al. (Patent Application WO 2006/020145 A2, 23 Feb. 2006) and was conducted by MD Biosciences, a contract research organization that provides in vivo and in vitro disease models as well as mode of action studies for general inflammatory screening, arthritis, IBD, and multiple sclerosis. C57BL/6 mice were immunized with proteolipid protein emulsified in Complete Freund's Adjuvant on day 0 of the study. After a booster with pertussis toxin also on day 0 and then on day 2, the mice were treated on day 5 after disease induction with three oral dosing schedules of XF-2, at 10 mg/kg every 24 hrs, 20 mg/kg every 48 hrs and 30 mg/kg every 72 hrs.

[14] = read-out: IC50 as FLT3 inhibitors (FIG. 3)

T1 sequence (P21802 399-821 limits assumed): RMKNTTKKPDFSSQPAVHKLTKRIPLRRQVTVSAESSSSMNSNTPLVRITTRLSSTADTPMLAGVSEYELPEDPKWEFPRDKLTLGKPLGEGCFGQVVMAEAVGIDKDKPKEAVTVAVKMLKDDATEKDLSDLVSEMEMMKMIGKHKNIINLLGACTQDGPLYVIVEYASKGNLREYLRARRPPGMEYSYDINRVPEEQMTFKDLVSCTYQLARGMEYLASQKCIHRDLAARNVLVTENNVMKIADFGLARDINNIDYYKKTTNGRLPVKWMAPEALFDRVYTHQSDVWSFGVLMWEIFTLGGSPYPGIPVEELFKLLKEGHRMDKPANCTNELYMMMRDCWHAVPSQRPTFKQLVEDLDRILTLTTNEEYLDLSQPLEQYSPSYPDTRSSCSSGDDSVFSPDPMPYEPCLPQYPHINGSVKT
Chain of PDGFRb (P09619 33-1106): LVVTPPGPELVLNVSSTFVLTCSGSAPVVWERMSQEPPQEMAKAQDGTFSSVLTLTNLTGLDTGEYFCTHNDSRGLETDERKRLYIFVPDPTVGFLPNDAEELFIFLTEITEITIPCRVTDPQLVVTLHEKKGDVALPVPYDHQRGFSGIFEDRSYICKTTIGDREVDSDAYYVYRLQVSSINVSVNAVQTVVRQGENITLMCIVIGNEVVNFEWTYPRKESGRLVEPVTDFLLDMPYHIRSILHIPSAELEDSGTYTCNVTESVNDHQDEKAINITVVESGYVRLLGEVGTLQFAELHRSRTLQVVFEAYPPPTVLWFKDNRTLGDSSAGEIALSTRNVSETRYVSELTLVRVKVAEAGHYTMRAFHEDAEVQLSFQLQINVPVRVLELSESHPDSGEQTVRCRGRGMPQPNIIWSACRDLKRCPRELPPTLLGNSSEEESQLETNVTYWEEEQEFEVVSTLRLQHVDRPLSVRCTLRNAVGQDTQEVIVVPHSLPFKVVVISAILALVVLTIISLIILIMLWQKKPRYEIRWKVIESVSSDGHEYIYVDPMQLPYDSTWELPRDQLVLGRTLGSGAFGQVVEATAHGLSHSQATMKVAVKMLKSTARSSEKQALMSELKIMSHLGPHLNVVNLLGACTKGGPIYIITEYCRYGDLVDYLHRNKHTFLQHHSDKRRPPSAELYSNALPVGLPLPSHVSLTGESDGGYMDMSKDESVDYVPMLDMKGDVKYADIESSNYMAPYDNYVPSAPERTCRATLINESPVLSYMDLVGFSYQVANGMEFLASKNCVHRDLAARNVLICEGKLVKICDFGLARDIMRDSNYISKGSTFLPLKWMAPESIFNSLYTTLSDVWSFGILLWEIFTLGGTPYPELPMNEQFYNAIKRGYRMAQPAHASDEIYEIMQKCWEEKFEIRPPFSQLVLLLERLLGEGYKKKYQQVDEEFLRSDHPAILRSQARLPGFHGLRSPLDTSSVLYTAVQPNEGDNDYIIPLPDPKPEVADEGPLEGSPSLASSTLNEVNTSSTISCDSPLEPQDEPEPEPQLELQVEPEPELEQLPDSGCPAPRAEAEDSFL
Chain of NTRK1 (P04629 33-796): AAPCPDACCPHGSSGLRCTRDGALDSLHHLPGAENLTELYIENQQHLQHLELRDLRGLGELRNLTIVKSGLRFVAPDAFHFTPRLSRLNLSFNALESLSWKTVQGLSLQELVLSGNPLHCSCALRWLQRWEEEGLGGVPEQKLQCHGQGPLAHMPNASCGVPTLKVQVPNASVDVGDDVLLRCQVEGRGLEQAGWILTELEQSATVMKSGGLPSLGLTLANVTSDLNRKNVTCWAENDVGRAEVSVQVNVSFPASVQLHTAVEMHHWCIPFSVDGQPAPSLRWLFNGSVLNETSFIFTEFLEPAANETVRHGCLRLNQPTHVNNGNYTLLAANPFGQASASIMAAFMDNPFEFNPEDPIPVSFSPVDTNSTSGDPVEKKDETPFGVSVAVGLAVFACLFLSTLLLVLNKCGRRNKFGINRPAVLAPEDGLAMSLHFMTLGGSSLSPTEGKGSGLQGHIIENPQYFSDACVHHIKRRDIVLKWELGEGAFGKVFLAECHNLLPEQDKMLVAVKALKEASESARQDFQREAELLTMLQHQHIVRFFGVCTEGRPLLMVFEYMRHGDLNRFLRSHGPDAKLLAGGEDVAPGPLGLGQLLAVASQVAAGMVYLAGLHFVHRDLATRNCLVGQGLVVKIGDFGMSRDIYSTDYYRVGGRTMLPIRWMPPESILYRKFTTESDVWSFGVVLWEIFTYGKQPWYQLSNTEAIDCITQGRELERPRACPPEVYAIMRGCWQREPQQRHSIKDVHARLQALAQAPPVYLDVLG

Structure (SMILES): C[C@]12O[C@H](C[C@]1(O)CO)n1c3ccccc3c3c4c(c5c6ccccc6n2c5c31)CNC4=O [CEP-701, reference compound]
- inhibition of NTRK1 [1]: inhibits
- inhibition of FGFR2 ([2]; in words, FIG. 4A): inhibits

- EC50 [3]: 133 nM
Structure (SMILES): CN(C)CCNc1ccc2ncn3c4ccccc4c(=O)c1c23 [XF-0308]

Structure (SMILES): O=c1c2c(NCCN3CCOCC3)ccc3ncn(c4ccc5[nH]ncc5c14)c32 [XF-0122]
- EC50 [3]: 51 nM

- inhibitory activity against KDR, PDGF and TRK members of the RTK family [4]: many fold less pronounced
- EC50 [3]: 50 nM
- activity against FLT3 [5]: active
- activity against FLT3 mutant form [6]: active
Structure (SMILES): O=c1c2cc(O)ccc2n2cnc3ccc(NCCCN4CCOCC4)c1c32 [XF-0113]

Structure (SMILES): CO[C@@H]1[C@H](N(C)C(=O)c2ccccc2)C[C@H]2O[C@]1(C)n1c3ccccc3c3c4c(c5c6ccccc6n2c5c31)C(=O)NC4 [PKC-412]
- cross-reaction with PDGFRb [7]: cross-reacts
- cross-reaction with PKC [8]: cross-reacts

- inhibitory activity against KDR, PDGF and TRK members of the RTK family [4]: many fold less pronounced
- EC50 [9]: > 10000 nM
- EC50 cell viability, in words ([11]; 72 hrs, compared with PKC-412): closer to the micromolar mark
- activity against FLT3 [5]: active
- IC50 [5, 14]: 12 nM
- activity against FLT3 mutant form [6]: active
Structure (SMILES): O=c1c2cc(O)ccc2n2cnc3ccc(NCCN4CCOCC4)c1c32 [XF-22]
- cell viability potency, in words [10]: less activity

- EC50 [3]: 135 nM
Structure (SMILES): O=c1c2ccccc2n2cnc3ccc(NCCNCCO)c1c32 [XF-0328]

Structure (SMILES): CCN(CC)CCNc1ccc2ncn3c4ccc(O)cc4c(=O)c1c23 [XF-2]
- IC50 [12]: > 5000 nM
- inhibitory activity against KDR, PDGF and TRK members of the RTK family [4]: many fold less pronounced
- EC50 [9]: > 10000 nM
- cell viability potency, in words [10]: closely matched
- EC50 ([11]; Homo sapiens, read-out: effective concentration to decrement cell viability by 50% (EC50), 72 hrs of continuous exposure): 34 nM
- clinical scores [13]: lower clinical scores
- activity against FLT3 [5]: active
- IC50 ([5]; read-out: IC50 against FLT3): ~10 nM
- IC50 [5, 14]: 8 nM
- activity against FLT3 mutant form [6]: active
- drop of inhibitory activity on FGFR2 relative to FLT3, in EC50 value ([2]; FGFR2 versus FLT3): 100 fold
- IC50 ([2]; read-out: IC50 against FGFR2): > 2000 nM

- EC50 [3]: 50 nM
Structure (SMILES): O=c1c2cc(O)ccc2n2cnc3ccc(NCCN4CCCC4)c1c32 [XF-0241]

- EC50 [3]: 25 nM
Structure (SMILES): CN(C)CCNc1ccc2ncn3c4ccc(O)cc4c(=O)c1c23 [XF-0025]
